± gives the standard deviation of the reports.
Row | Compound | glass transition temperature
1 | *Oc1ccc(CC(NC(=O)CCc2ccc(OC(=O)CCC(*)=O)cc2)C(=O)OCCCCCCCCCCCC)cc1 (repeat unit) | 40.00 °C
2 | *CCN(*)C(=O)c1c(F)c(F)c(F)c(F)c1F (repeat unit) | 136.00 °C
3 | */C=C(/*)c1ccccc1C[Si](C)(C)C (repeat unit) | 170.00 °C
4 | *CCCC(CC)CCNC(=O)c1ccc(C(=O)N*)cc1 (repeat unit) | 135.00 °C
5 | *c1ccc(C(c2ccc(N3C(=O)c4cc(-c5ccc(C(C)(C)C)cc5)c(-c5cc6c(cc5-c5ccc(C(C)(C)C)cc5)C(=O)N(*)C6=O)cc4C3=O)cc2)(C(F)(F)F)C(F)(F)F)cc1 (repeat unit) | 381.00 °C
6 | *C(=O)Nc1ccc(C(c2ccc(NC(=O)c3ccc(N4C(=O)c5ccc(*)cc5C4=O)cc3C)cc2)(C(F)(F)F)C(F)(F)F)cc1 (repeat unit) | 355.00 °C
7 | *Oc1ccc(C(C)(C)c2ccc(Oc3ccc(C(O)C(O)c4ccc(*)cc4)cc3)cc2)cc1 (repeat unit) | 151.00 °C
8 | *Oc1ccc(C(c2ccc(OC(*)=O)cc2)C(Cl)Cl)cc1 (repeat unit) | 165.00 °C
9 | *Cc1ccc(CNC(=O)CCCCCCCCCCCCCCCCC(=O)N*)cc1 (repeat unit) | 75.00 °C
10 | *CC(=O)NCCCCCCNC(=O)COC(=O)CCCCCCC(=O)O* (repeat unit) | 8.00 °C
11 | *Oc1ccc(P(=O)(c2ccccc2)c2ccc(Oc3ccc(-c4ccc(*)cc4)cc3)cc2)cc1 (repeat unit) | 234.00 °C
12 | *c1ccc2c(c1)C(=O)N(c1cc(N3C(=O)c4ccc(C(*)(C(F)(F)F)C(F)(F)F)cc4C3=O)c(O)cc1O)C2=O (repeat unit) | 324.00 °C
13 | *CC(*)(C)C(=O)OCc1ccco1 (repeat unit) | 111.00 °C
14 | *C(=O)c1ccc2c(c1)C(=O)N(c1ccc(Cc3ccc(N4C(=O)c5ccc(*)cc5C4=O)c(C)c3)cc1C)C2=O (repeat unit) | 297.50 ± 18 °C
15 | *c1ccc(OC(=O)c2ccc(C(=O)Oc3ccc(C4(*)c5ccccc5C(=O)N4C)cc3)cc2)cc1 (repeat unit) | 282.00 °C
16 | *c1ccc(OCCN(CC)c2ccc(C(C#N)=C(C#N)C#N)cc2)c(-c2cc(-c3ccccc3)c3cc(Oc4ccc5nc(*)cc(-c6ccccc6)c5c4)ccc3n2)c1 (repeat unit) | 200.00 °C
17 | *CC(*)c1ccc2c(c1)OCO2 (repeat unit) | 138.00 °C
18 | *c1ccc(Oc2ccc(C(=O)c3ccc4cc(C(=O)c5ccc(Oc6ccc(-c7nc(-c8ccc(-c9nc(*)c(-c%10ccccc%10)[nH]9)cc8)[nH]c7-c7ccccc7)cc6)cc5)ccc4c3)cc2)cc1 (repeat unit) | 281.00 °C
19 | *Oc1ccc(OC2(F)C(*)(F)C(F)(F)C2(F)F)cc1 (repeat unit) | 41.00 °C
20 | *C(F)C(*)(F)F (repeat unit) | 31.5 °C
21 | *C#Cc1cc(C(C)(C)C)cc2c3cc(C(C)(C)C)cc(*)c3n(CCCCCCCCCCCCCCCC)c12 (repeat unit) | 80.00 °C
22 | *CC(OC)C(C(=O)O)C(*)C(=O)O (repeat unit) | 144.00 °C
23 | *CCC1CC(OC(=O)CCCCCCCCCCOc2ccc(-c3ccc(C#N)cc3)cc2)CC1* (repeat unit) | 24.00 °C
24 | *CCCCCOC(=O)c1ccc(-c2ccc(-c3ccc(C(=O)O*)cc3)cc2)cc1 (repeat unit) | 40.00 °C

Row | Compound | glass transition temperature
25 | */C=C/CCCCCCCCCC(Cl)CCCCCCCCC* (repeat unit) | -37.00 °C
26 | *CCCCCCOc1ccc(/C=C2\CC/C(=C\c3ccc(OCCCCCCOP(=O)(O*)OC)c(OC)c3)C2=O)cc1OC (repeat unit) | 74.00 °C
27 | *Oc1ccc(Oc2ccc(C(=O)c3c(C(=O)c4ccc(*)cc4)c(-c4ccc(F)cc4)c(-c4ccc(F)cc4)c(-c4ccc(F)cc4)c3-c3ccc(F)cc3)cc2)cc1 (repeat unit) | 266.00 °C
28 | *CC(*)(C)C(=O)OCCN(CC)c1ccc(/N=N/c2ccc(OC)cc2)c(C)c1 (repeat unit) | 95.00 °C
29 | *c1ccc(Oc2ccc(C3(c4ccc(Oc5ccc(-c6cccc(*)n6)cc5C(F)(F)F)cc4)c4ccccc4-c4ccccc43)cc2)c(C(F)(F)F)c1 (repeat unit) | 182.50 °C
30 | *OP(=O)(Oc1ccc(-c2ccc(*)cc2)cc1)OC1CCCCC1 (repeat unit) | 116.00 °C
31 | *CC(O)COc1ccc(S(=O)(=O)c2ccc(O*)cc2)cc1 (repeat unit) | 167.50 °C
32 | *CC(*)(C)C(=O)OCCCCOc1ccc(OC(=O)c2ccc(OC)cc2)cc1 (repeat unit) | 57.00 °C
33 | *CCCCCCCCCCCC(=O)Oc1ccc(OC(=O)c2ccc3c(c2)C(=O)N(*)C3=O)cc1 (repeat unit) | 58.00 °C
34 | *CCCCCCCCCCOC(=O)c1ccc(C(=O)O*)cc1 (repeat unit) | 10.50 °C
35 | *Oc1ccc(-c2ccc(Oc3ccc(C(=O)c4ccc(*)c(S(=O)(=O)O)c4)cc3S(=O)(=O)O)cc2)cc1 (repeat unit) | 225.00 °C
36 | *c1ccc(Sc2ccc(-c3nc4cc(-c5ccc6nc(-c7ccccc7)c(*)nc6c5)ccc4nc3-c3ccccc3)cc2)cc1 (repeat unit) | 288.00 °C
37 | *C(=O)c1ccc2c(c1)C(=O)N(c1c(C)cc(C)c(N3C(=O)c4ccc(*)cc4C3=O)c1C)C2=O (repeat unit) | 404.00 ± 8.5 °C
38 | *CC(*)C(=O)OCCC(C)OC (repeat unit) | -56.00 °C
39 | *c1ccc(-c2ccc(-c3ccc(-c4ccc(-c5ccc6c(c5)C(=O)N(c5cccc(N7C(=O)c8ccc(*)cc8C7=O)c5)C6=O)cc4)cc3)cc2)cc1 (repeat unit) | 237.00 °C
40 | *CC(CC(*)(C#N)C#N)c1ccc(CCl)cc1 (repeat unit) | 180.00 °C
41 | *c1ccc(CCc2ccccc2N2C(=O)C(=O)N(c3ccc(Cc4ccc(N5C(=O)C(=O)N(*)C5=O)cc4)cc3)C2=O)cc1 (repeat unit) | 198.00 °C
42 | *Nc1ccc(C2(c3ccc(NC(=O)c4ccc(-c5ccc(C(*)=O)c(C)c5)cc4C)cc3)c3ccccc3-c3ccccc32)cc1 (repeat unit) | 293.00 °C
43 | *Oc1ccc(CC(NC(=O)CCc2ccc(OC(=O)CCCCC(*)=O)cc2)C(=O)OCCCCCCCC)cc1 (repeat unit) | 28.00 °C
44 | *Oc1ccc(NC(=O)c2ccc(Oc3ccc(C(=O)Nc4ccc(Oc5ccc(C6(c7ccc(*)cc7)C7CC8CC(C7)CC6C8)cc5)cc4)cc3)cc2)cc1 (repeat unit) | 230.00 °C
45 | *CC(*)(C)C(=O)OCCCCOc1ccc(OC(=O)c2ccc(OCCCC)cc2)cc1 (repeat unit) | 51.00 °C
46 | *c1ccc(Oc2ccc(C(=O)c3ccc(Oc4ccc(-c5c6c(c(*)c7ccccc57)C(=O)N(c5ccccc5)C6=O)cc4)cc3)cc2)cc1 (repeat unit) | 273.50 °C
47 | *C(*)C(=O)OCC (repeat unit) | 13.50 °C
48 | *c1ccc2c(c1)C(=O)N(c1ccc(Oc3ccc(C(=O)c4cccc(N5C(=O)c6ccc(C(*)(C(F)(F)F)C(F)(F)F)cc6C5=O)c4)cc3)c(C(F)(F)F)c1)C2=O (repeat unit) | 222.00 °C
